Experimental data: US8334382B2, “Substituted biaryl piperazinyl-pyridine analogues” (Neurogen Corporation, priority 2004, dated 2012)

target: T1, human capsaicin receptor (Homo sapiens, UniProt Q8NER1); assay: Calcium mobilization assay, determination of antagonist activity; format: cell-based; conditions: capsaicin at EC50; cells expressing human capsaicin receptor; Example 6
T1 construct: expressed in transfected cells; host or cells: HEK293, stably transfected with pBK-CMV construct
In short: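 HEK293 cells stably expressing full-length human TRPV1, loaded with Fluo-3 AM in KRH buffer pH 7.4, preincubated with compound (final 1-5 µM) in the dark at room temperature for 0.5-6 h, then stimulated with capsaicin at its EC50. FLIPR fluorescence gave IC50 as concentration halving the capsaicin response.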

T1 sequence (Q8NER1 whole entry): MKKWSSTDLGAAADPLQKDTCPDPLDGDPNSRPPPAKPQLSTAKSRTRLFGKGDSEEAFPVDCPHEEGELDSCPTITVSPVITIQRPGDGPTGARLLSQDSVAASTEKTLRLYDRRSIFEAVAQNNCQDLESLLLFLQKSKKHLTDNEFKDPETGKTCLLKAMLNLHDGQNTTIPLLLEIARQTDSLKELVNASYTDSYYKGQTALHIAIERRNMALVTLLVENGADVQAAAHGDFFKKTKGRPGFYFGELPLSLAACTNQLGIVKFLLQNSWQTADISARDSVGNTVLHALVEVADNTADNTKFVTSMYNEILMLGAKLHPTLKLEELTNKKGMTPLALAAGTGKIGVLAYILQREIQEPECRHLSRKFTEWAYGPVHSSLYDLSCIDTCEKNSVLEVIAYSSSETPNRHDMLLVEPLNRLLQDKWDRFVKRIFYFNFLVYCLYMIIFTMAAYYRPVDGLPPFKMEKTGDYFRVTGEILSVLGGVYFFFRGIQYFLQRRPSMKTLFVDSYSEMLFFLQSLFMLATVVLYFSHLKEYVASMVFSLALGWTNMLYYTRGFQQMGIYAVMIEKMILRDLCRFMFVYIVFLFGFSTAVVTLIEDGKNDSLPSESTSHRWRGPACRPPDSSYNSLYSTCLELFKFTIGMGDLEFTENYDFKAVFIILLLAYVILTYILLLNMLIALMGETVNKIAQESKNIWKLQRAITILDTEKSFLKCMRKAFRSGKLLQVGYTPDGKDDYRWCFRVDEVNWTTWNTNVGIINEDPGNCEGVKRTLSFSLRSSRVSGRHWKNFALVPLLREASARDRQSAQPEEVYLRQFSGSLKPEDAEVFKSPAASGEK

Structure (SMILES)	IC50
C[C@@H]1CN(c2ncc(C(=O)O)cc2Cl)CCN1c1cc(-c2ccc(F)c(Cl)c2)nc(N2CCC[C@H]2C)n1 [Example 103, 5-Chloro-6-{4-[6-(3-chloro-4-fluoro-phenyl)-2-(2-(R)-methyl-pyrrolidin-l-yl)-pyrimidin-4-yl]-3-(R)-methyl-piperazin-1-yl}-nicotinic acid]	≤ 1000 nM
C[C@@H]1CN(c2ncc(C(N)=O)cc2Cl)CCN1c1cc(-c2ccc(F)cc2)nc(N2CCOC[C@H]2C)n1 [Example 143, 5-Chloro-6-{4-[6-(4-fluoro-phenyl)-2-(3-(R)-methyl-morpholin-4-yl)-pyrimidin-4-yl]-3-(R)-methyl-piperazin-1-yl}-nicotinamide]	≤ 1000 nM
C[C@@H]1CN(c2ncc(C(N)=O)cc2Cl)CCN1c1cc(-c2ccccc2)nc(N2CCC[C@H]2CO)n1 [Example 165, 5-Chloro-6-{4-[2-(2-(S)-hydroxymethyl-pyrrolidin-1-yl)-6-phenyl-pyrimidin-4-yl]-3-(R)-methyl-piperazin-1-yl}-nicotinamide]	≤ 1000 nM
Cc1cc(C(=O)O)cnc1N1CCN(c2cc(-c3ccccc3)nc(N3CCCC3C)n2)CC1 (stereo not drawn) [Example 75, 5-Methyl-6-{4-[2-(2-methyl-pyrrolidin-1-yl)-6-phenyl-pyrimidin-4-yl]-piperazin-1-yl}-nicotinic acid]	≤ 1000 nM
Cc1cc(CCO)cnc1N1CCN(c2cc(-c3ccc(F)cc3)nc(N3CCC[C@H]3C)n2)[C@H](C)C1 [Example 181, 2-[6-((3R)-4-{6-(4-fluorophenyl)-2-[(2R)-2-methyl-1-pyrrolidinyl]-4-pyrimidinyl}-3-methyl-1-piperazinyl)-5-methyl-3-pyridinyl]ethanol]	≤ 1000 nM
CC1CCCN1c1nc(-c2ccccc2)cc(N2CCN(c3ncc(CO)cc3Cl)C[C@H]2C)n1 (stereo partly drawn) [Example 47, (5-Chloro-6-{3-(R)-methyl-4-[2-(2-methyl-pyrrolidin-1-yl)-6-phenyl-pyrimidin-4-yl]-piperazin-1-yl}-pyridin-3-yl)-methanol]	≤ 1000 nM
Cc1cc(C(=O)O)cnc1N1CCN(c2cc(-c3ccccc3)nc(N3CCC[C@H]3C)n2)[C@H](C)C1 [Example 96, 5-Methyl-6-{3-(R)-methyl-4-[2-(2-(R)-methyl-pyrrolidin-1-yl)-6-phenyl-pyrimidin-4-yl]-piperazin-1-yl}-nicotinic acid]	≤ 1000 nM
Cc1cccnc1N1CCN(c2nc(N3CCC[C@H]3C)nc(-c3ccc(F)cc3)c2F)[C@H](C)C1 [Example 189, 5-fluoro-4-(4-fluorophenyl)-6-[(2R)-2-methyl-4-(3-methylpyridin-2-yl)piperazin-1-yl]-2-[(2R)-2-methylpyrrolidin-1-yl]pyrimidine]	≤ 1000 nM
Cc1cc(C(=O)O)cnc1N1CCN(c2cc(-c3ccccc3)nc(N3CCCC3C)n2)[C@H](C)C1 (stereo partly drawn) [Example 68, 5-Methyl-6-{3-(R)-methyl-4-[2-(2-methyl-pyrrolidin-1-yl)-6-phenyl-pyrimidin-4-yl]-piperazin-1-yl}-nicotinic acid]	≤ 1000 nM
CCOC(=O)c1cnc(N2CCN(c3cc(-c4ccc(F)cc4)nc(N4CCCC4C)n3)[C@H](C)C2)c(Cl)c1 (stereo partly drawn) [Example 27, 5-Chloro-6-{4-[6-(4-fluoro-phenyl)-2-(2-methyl-pyrrolidin-1-yl)-pyrimidin-4-yl]-3-(R)-methyl-piperazin-1-yl}-nicotinic acid ethyl ester]	≤ 1000 nM

More lines, now with the values ahead:

IC50	Structure (SMILES)
≤ 1000 nM	Cc1cc(CO)cnc1N1CCN(c2cc(-c3ccc(F)cc3)nc(N3CCCC3C)n2)CC1 (stereo not drawn) [Example 38, (6-{4-[6-(4-Fluoro-phenyl)-2-(2-methyl-pyrrolidin-1-yl)-pyrimidin-4-yl]-piperazin-1-yl}-5-methyl-pyridin-3-yl)-methanol]
≤ 1000 nM	CC1CCCN1c1nc(-c2ccc(F)cc2)cc(N2CCN(c3ncc(CC(N)=O)cc3Cl)CC2)n1 (stereo not drawn) [Example 152, 2-(5-Chloro-6-{4-[6-(4-fluoro-phenyl)-2-(2-methyl-pyrrolidin-1-yl)-pyrimidin-4-yl]-piperazin-1-yl}-pyridin-3-yl)-acetamide]
≤ 1000 nM	C[C@@H]1CN(c2ncc(C(=O)NCCO)cc2Cl)CCN1c1cc(-c2ccccc2)nc(N2CCC[C@H]2CO)n1 [Example 166, 5-Chloro-N-(2-hydroxy-ethyl)-6-{4-[2-(2-(S)-hydroxymethyl-pyrrolidin-1-yl)-6-phenyl-pyrimidin-4-yl]-3-(R)-methyl-piperazin-1-yl}-nicotinamide]
≤ 1000 nM	Cc1cc(OCCO)cnc1N1CCN(c2cc(-c3ccc(F)c(Cl)c3)nc(N3CCC[C@H]3C)n2)[C@H](C)C1 [Example 182, 2-{[6-((3R)-4-{6-(3-chloro-4-fluorophenyl)-2-[(2R)-2-methyl-1-pyrrolidinyl]-4-pyrimidinyl}-3-methyl-1-piperazinyl)-5-methyl-3-pyridinyl]oxy}ethanol]
≤ 1000 nM	Cc1cc(C(=O)NCC(F)(F)F)cnc1N1CCN(c2cc(-c3ccc(F)cc3)nc(N3CCCC3C)n2)CC1 (stereo not drawn) [Example 120, 6-{4-[6-(4-fluorophenyl)-2-(2-methylpyrrolidin-1-yl)pyrimidin-4-yl]piperazin-1-yl}-5-methyl-N-(2,2,2-trifluoroethyl)nicotinamide]
≤ 1000 nM	C[C@@H]1CN(c2ncc(C(=O)O)cc2Cl)CCN1c1cc(-c2ccc(F)cc2)nc(N2CCC[C@H]2CO)n1 [Example 156, 5-Chloro-6-{4-[6-(4-fluoro-phenyl)-2-(2-(S)-hydroxymethyl-pyrrolidin-1-yl)-pyrimidin-4-yl]-3-(R)-methyl-piperazin-1-yl}-nicotinic acid]
≤ 1000 nM	Cc1cc(C#N)cnc1N1CCN(c2cc(-c3ccc(F)cc3)nc(N3CCC[C@H]3C)n2)[C@H](C)C1 [Example 188, 6-((3R)-4-{6-(4-fluorophenyl)-2-[(2R)-2-methyl-1-pyrrolidinyl]-4-pyrimidinyl}-3-methyl-1-piperazinyl)-5-methylnicotinonitrile]
≤ 1000 nM	C[C@@H]1CCCN1c1nc(-c2ccc(F)cc2)cc(N2CCN(c3ncc(C(=O)O)cc3C(F)(F)F)CC2)n1 [Example 177, 6-{4-[6-(4-Fluoro-phenyl)-2-(2-(R)-methyl-pyrrolidin-1-yl)-pyrimidin-4-yl]-piperazin-1-yl}-5-trifluoromethyl-nicotinic acid]
≤ 1000 nM	Cc1cc(C(=O)N2CCC(C)CC2)cnc1N1CCN(c2cc(-c3ccc(F)cc3)nc(N3CCCC3C)n2)CC1 (stereo not drawn) [Example 125, 4-(4-fluorophenyl)-6-(4-{3-methyl-5-[(4-methylpiperidin-1-yl)carbonyl]pyridin-2-yl}piperazin-1-yl)-2-(2-methylpyrrolidin-1-yl)pyrimidine]
≤ 1000 nM	C[C@@H]1CN(c2ncc(C(=O)O)cc2C(F)(F)F)CCN1c1cc(-c2ccc(F)cc2)nc(N2CCC[C@H]2C)n1 [Example 179, 6-{4-[6-(4-Fluoro-phenyl)-2-(2-(R)-methyl-pyrrolidin-1-yl)-pyrimidin-4-yl]-3-(R)-methyl-piperazin-1-yl}-5-trifluoromethyl-nicotinic acid]
≤ 1000 nM	Cc1cc(C(=O)NC2CCCC2)cnc1N1CCN(c2cc(-c3ccc(F)cc3)nc(N3CCCC3C)n2)CC1 (stereo not drawn) [Example 108, N-Cyclopentyl-6-{4-[6-(4-fluoro-phenyl)-2-(2-methyl-pyrrolidin-1-yl)-pyrimidin-4-yl]-piperazin-1-yl}-5-methyl-nicotinamide]
